Test results taken from article PMC8752738, “A propolis-derived small molecule ameliorates metabolic syndrome in obese mice by targeting the CREB/CRTC2 transcriptional complex” (Nature Communications, 2022).
Where “and” joins values, the source holds several entries; their conditions need not be identical. Equal entries are not always repeated.

Key:
[1] = target: T1, GST-CREB / HA-P300 interaction (Homo sapiens, UniProt P16220); assay: GST-CREB pull-down of HA-P300 from HEK293T lysate; assay type: biochemical; settings: APC 10 μM
T1 construct: made in house; host or cells: GST-CREB beads (pGEX5X-1); HA-P300 expressed in HEK293T cells
Protocol: 1 Supplementary Figure 2.
2 a) Immunoblot of HA-P300 recovered from HEK293T cell lysate using GST-CREB beads. APC
3 (10 μM) was incubated with cells for 1-h before FKS (10 nM) stimulation and was included in the
4 following pull-down mixtures (n=3). One of two independent experiments presented here.
5 b) Immunoblot for recovered GFP-CRTC1 or (c) GFP-CRTC3 immunoprecipitated by MYC-CREB
6 from overexpression HEK293T cell line. APC (10 μM) was incubated with cells for 1-h before FKS
7 (10 nM) stimulation and was included in the following pull-down mixtures. One of two independent
8 experiments presented here.
9 d) SPR sonogram traces of APC binding with HIS-CREB proteins immobilized to NTA-chip. The
10 concentration series of APC was as indicated.
11 e) SPR sonogram traces of APC flowing through HIS-CRTC2-S171A proteins immobilized on
12 NTA-chip. The concentration of APC was as indicated.
13 f) The luciferase enzymatic activity of HEK293T incubated with APC. Cells over-expressed
14 luciferase CRE-Luc reporter and were stimulated by FSK (10 nM) for 5-h before lysis, which was
15 then incubated with APC (concentration indicated) for 30 min before luciferase activity determination
16 (n=3 per treatment). Data are represented as mean ± SEM. *, p < 0.05; **, p < 0.01; p values were
17 determined by one-way ANOVA followed Dunnett’s multiple comparisons test. […]

[2] = tested on: mouse Lxra promoter; assay: Truncated Lxra-LUC reporter in HEK293T; assay type: cell-based; settings: for Relative luciferase reporter activity of mouse LXRa promotor deletion series, group mean (Mean 2) / Relative luciferase reporter activity of mouse LXRa promotor deletion series, group mean (Mean 1) / Relative luciferase reporter activity of mouse LXRa promotor deletion series: APC 10uM; for Relative luciferase reporter activity of mouse LXRa promotor deletion series: individual replicates
Protocol: Fig. 7 APC inhibits SREBP1 expression via the CRE-LXRα-LXRE axis. a Quantitative PCR analysis of hepatic expressions of Lxra, Ppra, Pprg, Rxra in DIO mice, which were continuously i.p. injected with control vehicle (VEH) or APC (20 mg/kg) with indicated doses one time daily for 5 weeks (n = 6 per group). One of two independent experiments is shown here. Data are represented as mean ± SEM. *P < 0.05; **P < 0.01; P values were determined by two-way ANOVA followed Bonferroni’s multiple comparisons test. b Immunoblotting analysis of hepatic LXRα and premature SREBP1 protein levels in the livers of DIO mice injected APC for 5 weeks as (a). One of three independent experiments is shown here (left). The relative protein of LXRα, SREBP1, and PPARα normalized by GAPDH is shown as a bar graph (right) (n = 3). Data are represented as mean ± SEM. *P < 0.05; **P < 0.01; P values were determined by two-way ANOVA followed Bonferroni’s multiple comparisons test. c CHIP analysis LXRa and RXRa recruited to the promoter of the mouse Srebf1 (top) gene in primary hepatocytes from wild C57 mice and pretreated APC (10 μM) for 1-h (bottom) (n = 4 per treatment). One of three independent experiments presented here. Data are represented as mean ± SEM. *P < 0.05; **P < 0.01; P values were determined by two-way ANOVA followed Bonferroni multiple comparisons test. d CHIP analysis of CREB and CRTC2 occupancy over the half CRE sites in the Lxra promoter (Top) in primary mouse hepatocytes overexpressing CRTC2, pretreated with APC (10 μM) for 1-h prior to 1-h glucagon stimulation (Gluc, 100 nM) (bottom) (n = 4 per treatment). One of three independent experiments presented here. Data are represented as mean ± SEM. *P < 0.05; **P < 0.01; P values were determined by two-way ANOVA followed Bonferroni’s multiple comparisons test. e Reporter activity of truncated Lxra-LUC reporter. The luciferase reporter was driven by mouse Lxra promoter (−1342) or truncations (−784 and −178) co-transfected with MYC-Creb and FLAG-Crtc2-S171A in HEK293T cells, and pretreated with APC prior to stimulation with FSK (10 nM) for 4-h (n = 3 per treatment). One of three independent experiments presented here. Data are represented as mean ± SEM. *P < 0.05; **P < 0.01; P values were determined by two-way ANOVA followed Bonferroni’s multiple comparisons test. f Quantitative PCR analysis of the expression of CRTC2, Lxra, Srebf-1c, and Srebf-2, in primary hepatocytes, which were infected by LV-Crtc2-S171A or control and incubated with APC (10 μM) for 8-h (n = 3 per treatment). One of three independent experiments presented here. Data are represented as mean ± SEM. *P < 0.05; **P < 0.01; P values were determined by two-way ANOVA followed Bonferroni’s multiple comparisons test. g Quantitative PCR analysis of Lxra gene expression in the liver of CRTC2-KO mice. Be induced by high-fat diet for 8 weeks, with Crtc2-KO mice and wild-type littermates administered VEH (vehicle control), MET (metformin, 200 mg/kg), or APC (20 mg/kg) for 3 weeks, followed by fasting 8-h before anesthesia (n = 5 per group). Data are represented as mean ± SEM. *P < 0.05; **P < 0.01; P values of Crtc2 gene were determined by unpaired two-tailed t test with Welch’s correction, and P values of Lxra gene were determined by two-way ANOVA followed Bonferroni’s multiple comparisons test. h Immunoblotting analysis of LXRα protein in the liver of these mice as in (g). One of two independent experiments is presented here (top), and the relative concentration of LXRα normalized to ACTIN is shown as a bar graph (bottom). (n = 5 mice per group, two technological repeats represent a composite pool). Data are represented as mean ± SEM. *P < 0.05; **P < 0.01; P values were determined by two-way ANOVA followed Bonferroni’s multiple comparison test. Source data for this figure are provided as source data file.

T1 sequence (P16220 whole entry): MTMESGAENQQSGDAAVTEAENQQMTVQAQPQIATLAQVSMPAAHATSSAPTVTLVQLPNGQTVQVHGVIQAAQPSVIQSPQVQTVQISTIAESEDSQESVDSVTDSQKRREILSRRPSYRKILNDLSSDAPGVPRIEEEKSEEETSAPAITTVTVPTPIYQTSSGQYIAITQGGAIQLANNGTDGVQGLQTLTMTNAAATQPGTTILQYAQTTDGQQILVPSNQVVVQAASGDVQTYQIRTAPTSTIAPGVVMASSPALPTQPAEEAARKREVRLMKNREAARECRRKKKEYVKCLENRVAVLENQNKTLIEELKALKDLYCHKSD
T1 sequence (B2RWS6 whole entry partner): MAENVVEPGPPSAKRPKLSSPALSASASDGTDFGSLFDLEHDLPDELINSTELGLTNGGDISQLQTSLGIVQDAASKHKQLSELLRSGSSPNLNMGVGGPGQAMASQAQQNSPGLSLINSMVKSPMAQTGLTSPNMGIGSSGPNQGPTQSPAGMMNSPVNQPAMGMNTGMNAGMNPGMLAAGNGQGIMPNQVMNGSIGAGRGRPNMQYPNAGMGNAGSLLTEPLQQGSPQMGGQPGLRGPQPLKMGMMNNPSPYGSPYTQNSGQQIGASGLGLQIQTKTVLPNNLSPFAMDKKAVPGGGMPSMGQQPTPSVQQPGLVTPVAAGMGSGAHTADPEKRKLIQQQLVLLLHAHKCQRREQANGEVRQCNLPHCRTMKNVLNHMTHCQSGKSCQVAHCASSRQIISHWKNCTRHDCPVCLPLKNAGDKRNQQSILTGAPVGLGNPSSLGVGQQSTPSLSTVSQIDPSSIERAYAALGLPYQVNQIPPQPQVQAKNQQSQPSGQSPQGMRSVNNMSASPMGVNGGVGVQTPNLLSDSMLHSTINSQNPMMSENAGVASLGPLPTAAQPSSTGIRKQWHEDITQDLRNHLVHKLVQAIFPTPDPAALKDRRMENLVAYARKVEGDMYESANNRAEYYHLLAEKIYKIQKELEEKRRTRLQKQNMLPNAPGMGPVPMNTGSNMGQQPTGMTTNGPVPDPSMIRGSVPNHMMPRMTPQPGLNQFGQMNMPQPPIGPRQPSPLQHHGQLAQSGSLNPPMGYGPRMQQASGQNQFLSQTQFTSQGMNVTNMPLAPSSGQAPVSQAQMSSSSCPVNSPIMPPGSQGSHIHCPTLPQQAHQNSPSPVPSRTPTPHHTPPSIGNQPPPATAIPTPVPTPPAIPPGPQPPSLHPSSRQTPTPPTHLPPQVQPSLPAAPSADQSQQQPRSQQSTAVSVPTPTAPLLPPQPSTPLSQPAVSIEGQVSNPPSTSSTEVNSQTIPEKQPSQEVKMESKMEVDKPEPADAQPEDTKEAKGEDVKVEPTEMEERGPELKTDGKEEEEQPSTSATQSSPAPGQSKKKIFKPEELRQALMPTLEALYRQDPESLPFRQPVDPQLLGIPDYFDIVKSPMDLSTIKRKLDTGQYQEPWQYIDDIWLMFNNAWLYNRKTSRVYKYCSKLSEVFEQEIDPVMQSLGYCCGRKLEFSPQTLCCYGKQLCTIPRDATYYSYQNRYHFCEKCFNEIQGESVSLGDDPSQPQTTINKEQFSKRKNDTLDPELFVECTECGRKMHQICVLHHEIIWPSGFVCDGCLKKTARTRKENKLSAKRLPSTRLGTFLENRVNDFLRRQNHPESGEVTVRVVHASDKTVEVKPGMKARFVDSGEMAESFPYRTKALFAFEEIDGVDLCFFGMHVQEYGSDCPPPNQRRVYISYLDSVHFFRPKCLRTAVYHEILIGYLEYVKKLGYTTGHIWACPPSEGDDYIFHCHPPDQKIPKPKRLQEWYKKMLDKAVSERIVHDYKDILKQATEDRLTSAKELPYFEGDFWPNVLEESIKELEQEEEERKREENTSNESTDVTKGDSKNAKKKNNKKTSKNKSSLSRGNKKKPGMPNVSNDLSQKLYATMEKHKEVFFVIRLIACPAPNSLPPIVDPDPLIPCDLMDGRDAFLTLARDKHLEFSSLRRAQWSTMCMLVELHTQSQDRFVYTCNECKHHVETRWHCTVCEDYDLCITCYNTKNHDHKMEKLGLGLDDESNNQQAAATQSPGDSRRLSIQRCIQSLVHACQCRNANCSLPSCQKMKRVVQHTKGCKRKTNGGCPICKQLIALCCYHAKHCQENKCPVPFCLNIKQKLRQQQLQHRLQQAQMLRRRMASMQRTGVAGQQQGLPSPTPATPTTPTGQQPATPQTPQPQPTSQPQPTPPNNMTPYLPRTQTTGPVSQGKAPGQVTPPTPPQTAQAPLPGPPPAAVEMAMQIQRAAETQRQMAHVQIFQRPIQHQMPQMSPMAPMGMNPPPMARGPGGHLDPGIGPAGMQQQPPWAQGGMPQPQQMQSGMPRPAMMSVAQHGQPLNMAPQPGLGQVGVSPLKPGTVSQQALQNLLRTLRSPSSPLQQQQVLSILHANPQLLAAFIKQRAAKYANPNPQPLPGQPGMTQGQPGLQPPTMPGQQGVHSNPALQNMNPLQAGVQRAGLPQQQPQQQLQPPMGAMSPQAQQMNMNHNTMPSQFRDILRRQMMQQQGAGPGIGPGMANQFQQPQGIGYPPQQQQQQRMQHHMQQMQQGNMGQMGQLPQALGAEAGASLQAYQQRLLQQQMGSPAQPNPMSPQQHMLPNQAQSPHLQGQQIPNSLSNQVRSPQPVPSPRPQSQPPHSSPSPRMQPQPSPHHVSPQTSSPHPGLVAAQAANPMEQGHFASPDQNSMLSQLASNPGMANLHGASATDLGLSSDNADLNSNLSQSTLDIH

CC(C)=CCc1cc(C=CC(=O)O)cc(CC=C(C)C)c1O [APC, 3,5-diprenyl-4-hydroxycinnamic acid]
association of CREB with P300 [1]: little effect
Relative luciferase reporter activity of mouse LXRa promotor deletion series, group mean (Mean 2) ([2]; -178, CREB/CRTC2-S171A +, Ctrl (no FSK), mean of N=3): 80.85
Relative luciferase reporter activity of mouse LXRa promotor deletion series, group mean (Mean 1) ([2]; -178, CREB/CRTC2-S171A +, FSK, mean of N=3): 101.4
Lxra-LUC reporter activity, Mean ([2]; -178 construct, Ctrl (no FSK), mean of N=3, -1342_Ctrl = 100): 80.85
Lxra-LUC reporter activity, Mean ([2]; -178 construct, FSK, mean of N=3, -178_Ctrl with FSK = 80.5): 101.4
Relative luciferase reporter activity of mouse LXRa promotor deletion series, group mean (Mean 2) ([2]; -784, CREB/CRTC2-S171A +, Ctrl (no FSK), mean of N=3): 65.74
Relative luciferase reporter activity of mouse LXRa promotor deletion series, group mean (Mean 1) ([2]; -784, CREB/CRTC2-S171A +, FSK, mean of N=3): 80.88
Lxra-LUC reporter activity, Mean ([2]; -784 construct, Ctrl (no FSK), mean of N=3, -1342_Ctrl = 100): 65.74
Lxra-LUC reporter activity, Mean ([2]; -784 construct, FSK, mean of N=3, -784_Ctrl with FSK = 84.79): 80.88
Relative luciferase reporter activity of mouse LXRa promotor deletion series, group mean (Mean 2) ([2]; -1342, CREB/CRTC2-S171A +, Ctrl (no FSK), mean of N=3): 120.4
Relative luciferase reporter activity of mouse LXRa promotor deletion series, group mean (Mean 1) ([2]; -1342, CREB/CRTC2-S171A +, FSK, mean of N=3): 140.5
Lxra-LUC reporter activity, Mean ([2]; -1342 construct, Ctrl (no FSK), mean of N=3, -1342_Ctrl = 100): 120.4
Lxra-LUC reporter activity, Mean ([2]; -1342 construct, FSK, mean of N=3, -1342_Ctrl with FSK = 265.7): 140.5
Lxrα-luc reporter activity ([2]; HEK293T, FSK, attenuated when half CRE site −984 deleted): inhibition of Lxrα-luc reporter activity
Relative luciferase reporter activity of mouse LXRa promotor deletion series ([2]; mLXRa promoter region -178, CREB/CRTC2-S171A +, Ctrl (no FSK)): 68.909
Relative luciferase reporter activity of mouse LXRa promotor deletion series ([2]; mLXRa promoter region -178, CREB/CRTC2-S171A +, Ctrl (no FSK), unstimulated control): 81.477 and 92.1755
Relative luciferase reporter activity of mouse LXRa promotor deletion series ([2]; mLXRa promoter region -178, CREB/CRTC2-S171A +, FSK, FSK stimulated): 110.535 and 84.2634 and 109.449
Relative luciferase reporter activity of mouse LXRa promotor deletion series ([2]; mLXRa promoter region -784, CREB/CRTC2-S171A +, Ctrl (no FSK)): 58.3809
Relative luciferase reporter activity of mouse LXRa promotor deletion series ([2]; mLXRa promoter region -784, CREB/CRTC2-S171A +, Ctrl (no FSK), unstimulated control): 73.0822 and 65.7554
Relative luciferase reporter activity of mouse LXRa promotor deletion series ([2]; mLXRa promoter region -784, CREB/CRTC2-S171A +, FSK, FSK stimulated): 83.8052 and 88.4723 and 70.3736
Relative luciferase reporter activity of mouse LXRa promotor deletion series ([2]; mLXRa promoter region -1342, CREB/CRTC2-S171A +, Ctrl (no FSK)): 97.1063
Relative luciferase reporter activity of mouse LXRa promotor deletion series ([2]; mLXRa promoter region -1342, CREB/CRTC2-S171A +, Ctrl (no FSK), unstimulated control): 135.223 and 128.99
Relative luciferase reporter activity of mouse LXRa promotor deletion series ([2]; mLXRa promoter region -1342, CREB/CRTC2-S171A +, FSK, FSK stimulated): 139.251 and 135.05 and 147.302
